Patent US10172816B2, “Method of treating chronic obstructive pulmonary disease (CPD) with verproside” (YUNGJIN PHARMACEUTICAL CO., LTD, priority 2013, dated 2019)
Blank lines part the entries; values can stand above or below the compound they belong to.

Experiments:
[1] = target: ADBR2 (beta-2 adrenergic receptor) GPCR (Homo sapiens, UniProt P07550); assay: ADBR2 GPCR-targeting cell-based assay (spot formation); settings: 20 micromole; U2OS cells stably expressing ADBR2 GPCR
Mucin 5A/C [2] = assay: Digitization of Mucin 5A/C expression in A549 cells by high content screening; type: cell-based, human; settings: 1, 5 and 10 ng/ml, versus control medium (GM)
Procedure: Accordingly, the present inventors developed novel high throughput screening test by introducing high content screening system which can quantitatively determine the expression of target protein in animal cell level and in order to screening the inhibiting agent of Mucin 5AC expression, following test was performed by modifying the target activator method published on Cellomics BioApplication.
A549 cell line (ATCC, CCL-185), a epithelial cell line isolated from human lung cancer tissue was seeded on 96 well plates (5,000 cells/well) and 24 hrs after the seeding, 20 ng/ml of bFGF, 100 ng/ml of EGF, 20 micromole IGF, 5 ng/ml of TGF-beta1, 30 nanomole acrolein, 5 nanomole PMA, 1 microgram/ml, LPS and 20 ng/ml of IL-1 beta were treated therewith. The expression of Mucin 5A/C was digitized by target activator program in Cellomics apparatus.
Various concentrations of TGF-beta 1 (PeproTech, #100-21), i.e., 1, 5 and 10 ng/ml TGF-beta 1 were treated with A549 cell line (ATCC, CCL-185), and the expression of Mucin 5A/C was digitized by target activator program in Cellomics apparatus.
Various concentrations of ATC2 extract were treated with A549 cell line for 2 hours and then […] TNF-alpha (Sigma, H8916) was treated therewith for 24 hours. The expression of Mucin 5A/C was digitized by target activator program in Cellomics apparatus.

Mucin 5A/C [3] = assay: Acrolein-induced Mucin 5A/C expression in A549 cells (RT-PCR); type: cell-based, human; settings: pre-treated 1 hour, then 30 nM acrolein, dose dependent
Procedure: The diluted A549 cell line (ATCC, CCL-185) with DMEM medium supplemented with 5% phenol red and FBS (Fetal Bovine Serum) was seeded in 6 well plates (4×10^5 cells/well) to adhere thereto for a night, and 20 and 40 microgram/ml of ATC2 extract were treated with A549 cell line for 1 hours. 30 nM acrolein was treated therewith to induce Mucin 5A/C expression. The medium was removed the cell, washed with PBS solution and homogenized with Trizol (Invitrogen, CA, USA) for the isolation of ribonucleic acids from the cells for 5 mins. the cells were collected, transferred to centrifugal separator, completely mixed with chloroform for 15 seconds, left alone for 3 mins and centrifuged for 15 mins at the speed of 14,000 rpm. The supernatant containing ribonucleic acid was transferred to new tube and mixed with isopropylalcohol for 10 mins. The solution was centrifuged to discard the supernatant and 75% ethanol was added to the precipitate. The precipitate was centrifuged for 5 mins at the speed of 10,000 rpm and the supernatant was discarded. The precipitated ribonucleic acid was dried at room temperature for 20 mins. […] After the quantification of ribonucleic acid, the complementary DNA was synthesized using by 1 microgram of RNA and RT-kit (Omniscript RT kit, Qiagen, USA) and the synthetic cDNA was used as a template. […]

[4] = system: inflammatory immunocytes and neutrophils in BALF; assay: COPD mouse model (LPS+CS, i.t.): immunocytes, neutrophils and T lymphocytes in BALF; type: in vivo, BALB/c mice; settings: 15 mg/kg, p.o.
Procedure: Specific pathogen-free male BALB/c mice (about 18-20 g), aged 8 weeks, which were routinely screened serologically for relevant respiratory pathogens, were purchased from ORIENT Co. (www.orient.co.kr, Seoul, Korea) and bred allowing to access freely to feed and water in breeding room controlling the temperature of 22±2° C., and humidity of 55±15% at the light-dark cycle for 12 hours and acclimated with the experimental environment for 1 week. […] 8 weeks aged BALB/c male mice was anaesthetized with 7% chloral hydrate and 100 μl of LPS+CS mixture {LPS (100 μg/ml)+standard cigarette extract (Cigarette smoking (CS), 4 mg/ml)=1:1} was inhaled to mice (i.t.) for three weeks once a week to prepare COPD animal model. Briefly, 100 μl of LPS+CS mixture was evenly inhaled to nose and mouth of fastened mice (i.t). […] After the end of experiment, the blood, BALF, and pneumonocyte of each mice were isolated and collected to test. After blood collection, 1 ml of FBS-free/DMEM medium contained in injector was injected to the trachea of autopsied mice, and the mice was fixed with string to circulate the blood three times and isolate the cell from BALF. […] The isolated PBMCs, BAL (Bronchoalveolar lavage), and pneumocyte were adjusted to 5×10^5 cells and performed to immunofluorescence staining at 4° C. PE-anti-CD3e (553064, BD Pharmingen, USA), FITC-anti-CD8 (553031, BD Pharmingen, USA), PE-anti-CD4 (553047, BD Pharmingen, USA), PE-anti-Gr-1 (553128, BD Pharmingen, USA), and FITC-anti-neutrophil (ab55453, Abcam, UK) were added thereto, respectively, and reacted for 30 mins in ice. After the reaction, the cells were washed with phosphate buffered physiological saline solution more than three times and the cell frequency (%) of CD3^+CD4^+& CD3^+CD8^+, and Gr-1^+Neutrophil^+ was determined using by Cell Quest program (643274, BD Biosciences, USA) of the flow cytometer (FACSCalibur, Becton, Dickinson, USA) and the absolute total number in each tissue was calculated by applying total cells.

[5] = system: KC/CXCL-1 (Chemokines Gro-α); assay: COPD mouse model (LPS+CS): KC/CXCL-1 in BALF by ELISA; type: in vivo, BALB/c mice; settings: 15 mg/kg, p.o.
Procedure: (§1) 8 weeks aged BALB/c male mice was anaesthetized with 7% chloral hydrate and 100 μl of LPS+CS mixture {LPS (100 μg/ml)+standard cigarette extract (Cigarette smoking (CS), 4 mg/ml)=1:1} was inhaled to mice (i.t.) for three weeks once a week to prepare COPD animal model. Briefly, 100 μl of LPS+CS mixture was evenly inhaled to nose and mouth of fastened mice (i.t). […] After the end of experiment, the blood, BALF, and pneumonocyte of each mice were isolated and collected to test. The level of IL-1β, IL-6, TNF-a, IL-17, MCP-1, and GRO-a (BioSource, USA) in BALF isolated from mice was determined by enzyme-linked immuno-sorbent assay. Respective antibodies against L-1β, IL-6, TNF-a, IL-17, MCP-1, and GRO-a were diluted with a coating buffer solution (291195, R&D System, USA), coated on a microwell and left alone for overnight at 4° C. Each well was washed three times with washing buffer solution and 100 μl of 10-fold diluted serum was added thereto. […] The solution was left alone for 30 mins in shadow and added with 50 μl of stop solution (DY994, R&D system, USA) to determine the absorbance using by ELISA leader at 450 nm (340PC384, Molecular Devices, USA).

TNF-α = assay: COPD mouse model (LPS+CS): TNF-α in BALF by ELISA; type: in vivo, BALB/c mice; settings: 15 mg/kg, p.o.
Procedure: as §1

MIP-2/CXCL-2 = assay: COPD mouse model (LPS+CS): MIP-2/CXCL-2 in BALF by ELISA; type: in vivo, BALB/c mice; settings: 15 mg/kg, p.o.

Chain of ADBR2 (beta-2 adrenergic receptor) GPCR (P07550 whole entry): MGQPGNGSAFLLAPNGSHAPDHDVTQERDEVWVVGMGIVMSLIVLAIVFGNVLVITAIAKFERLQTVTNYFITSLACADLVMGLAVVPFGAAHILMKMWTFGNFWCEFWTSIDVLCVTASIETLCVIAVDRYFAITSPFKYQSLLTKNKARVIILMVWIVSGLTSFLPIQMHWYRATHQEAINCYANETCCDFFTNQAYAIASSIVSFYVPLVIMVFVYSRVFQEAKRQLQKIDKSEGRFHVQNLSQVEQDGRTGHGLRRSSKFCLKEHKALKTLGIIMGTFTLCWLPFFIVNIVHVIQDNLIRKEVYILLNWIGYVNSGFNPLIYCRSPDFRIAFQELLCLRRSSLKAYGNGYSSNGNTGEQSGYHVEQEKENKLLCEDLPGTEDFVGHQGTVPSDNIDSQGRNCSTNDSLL

spot formation [1]: did not show spot formation
Compound: COc1ccc(C(=O)OC2C3C=COC(OC4OC(CO)C(O)C(O)C4O)C3C3(CO)OC23)cc1O (centres unmarked) [isovanilloyl catalpol, 6-O-(3-hydroxy-4-methoxybenzoyl)catalpol]

Compound: COc1ccc(C(=O)O)cc1OC [veratric acid]
spot formation [1]: did not show spot formation

spot formation [1]: did not show spot formation
Compound: O=C(O[C@H]1[C@@H]2C=CO[C@@H](O[C@@H]3O[C@H](CO)[C@@H](O)[C@H](O)[C@H]3O)[C@@H]2[C@@]2(CO)O[C@@H]12)c1ccc(O)cc1 [catalposide, 6-O-(4-hydroxybenzolyl) catalpol]

Compound: COc1cc(C(=O)O[C@H]2[C@@H]3C=CO[C@@H](O[C@@H]4O[C@H](CO)[C@@H](O)[C@H](O)[C@H]4O)[C@@H]3[C@@]3(CO)O[C@@H]23)ccc1O [picroside II, 6-O-(4-hydroxy-3-methoxybenzoly) catalpol]
spot formation [1]: did not show spot formation

Compound: TGF-beta1: TGF-beta 1 (PeproTech, #100-21)
expression of Mucin 5A/C (Mucin 5A/C [2]): more inhibited the expression of MUCSA/C than control medium

spot formation [1]: did not show spot formation
Compound: COc1ccc(C(=O)O[C@H]2[C@@H]3C=CO[C@@H](O[C@@H]4O[C@H](CO)[C@@H](O)[C@H](O)[C@H]4O)[C@@H]3[C@@]3(CO)O[C@@H]23)cc1OC [6-O-veratroyl catalpol, 6-O-(3,4-dimethoxybenzoly) catalpol]
expression of Mucin 5A/C (mRNA, RT-PCR) (Mucin 5A/C [3]): inhibited

Compound: O=C(Nc1c(Cl)cncc1Cl)c1ccc(OC(F)F)c(OCC2CC2)c1 [Roflumilast, reference compound]
number of total immunocyte in BALF compared with control group [4]: sharply reduced
reduction of number of neutrophils (Diff-Quik stained, cytospin) in BALF compared with control group [4]: > 99.0%
reduction of total absolute cell number of CD8+ T cell in BALF compared with control group [4]: more than 67.2%
reduction of total absolute cell number of Neutrophils+Gr-1+ cell in BALF compared with control group [4]: > 97.5%
reduction of chemokine KC/CXCL-1 in BALF compared with control group [5]: > 82.7%
reduction of TNF-α in BALF compared with control group (TNF-α): > 65.0%
reduction of chemokines MIP-2/CXCL-2 in BALF compared with control group (MIP-2/CXCL-2): > 81.9%
